As a reminder, the IC50 is the concentration at which inhibition is half-maximal.

Bounds are passed on as bounds.

Chain of PHGDH (O43175 whole entry): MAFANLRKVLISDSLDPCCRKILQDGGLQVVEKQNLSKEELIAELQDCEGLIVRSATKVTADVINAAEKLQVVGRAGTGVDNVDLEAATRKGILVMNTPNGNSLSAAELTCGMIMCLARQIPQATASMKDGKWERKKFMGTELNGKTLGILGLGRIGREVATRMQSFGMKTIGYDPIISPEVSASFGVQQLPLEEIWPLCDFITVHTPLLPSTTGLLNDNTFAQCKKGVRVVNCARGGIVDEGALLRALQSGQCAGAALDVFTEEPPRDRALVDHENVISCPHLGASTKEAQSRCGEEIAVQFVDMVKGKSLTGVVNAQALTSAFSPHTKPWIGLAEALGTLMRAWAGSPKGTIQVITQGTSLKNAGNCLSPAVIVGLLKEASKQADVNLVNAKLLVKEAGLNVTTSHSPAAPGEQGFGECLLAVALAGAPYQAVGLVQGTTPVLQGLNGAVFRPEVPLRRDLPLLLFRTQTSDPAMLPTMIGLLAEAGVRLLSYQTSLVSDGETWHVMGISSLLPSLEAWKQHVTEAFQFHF

The test has as its target PHGDH (Homo sapiens (Human), UniProt O43175). Description: PHGDH inhibition, coupled assay with PSAT1/PSPH and diaphorase/resazurin readout. In kind it is biochemical. As to conditions: Table E9; mixture with PSAT1, PSPH; diaphorase/resazurin reporter. (Alamar Blue is a resazurin reagent that responds to reducing activity.)
Description: Compounds of the invention were assayed for inhibition of the activity phosphoglycerate dehydrogenase (PHGDH). The compounds were assayed in a mixture comprising PHGDH, PSAT1, PSPH, NADH, and glutamate. Diaphorase and resazurin were used as a fluorescent reporter system.
In this endogenous pathway coupled assay, the production of NADH by PHGDH was measured through the diaphorasemediated reduction of resazurin (See, e.g., Chakraborty, S., Sakka, M., Kimura, T. & Sakka, K. “Characterization of a dihydrolipoyl dehydrogenase having diaphorase activity of Clostridium kluyveri.” BioscL Biotechnol. Biochem. 72, 982-988 (2008)).
PHGDH assay buffer contained 50 mM TEA pH 8.0, 10 mM MgCl2, 0.05% BSA, and 0.01% Tween-20. PHGDH enzyme buffer consisted of assay buffer with 20 nM PHGDH and 0.2 mg/mL diaphorase. PHGDH substrate buffer contained 0.3 mM NAD 1.25 mM glutamate, 0.1 mM 3-phosphoglycerate, 0.2 mM resazurin, 1 μM PSAT1, and 1 μM PSPH. qHTS was performed in 1536-well plates dispensed with a BioRAPTR FRD. Each well contained equal volumes of substrate buffer and assay buffer. Plates were read at 0 minutes and 20 minutes at room temperature with a ViewLux uHTS Microplate Imager (PerkinElmer). Follow-up assays were performed in black 384-well plates (Greiner) in 20 μL of enzyme buffer to which compounds were added in dose-response with an HP D300 digital dispenser (Hewlett-Packard), followed by addition of 20 μL of substrate buffer. Plates were incubated at room temperature (25° C.) and read at 0 and 20 minutes with a Spectramax M5 plate reader (Molecular Devices) in fluorescence intensity mode with a λex=550 nm and λem=600 nm (emission cutoff=590 nm).
Regarding `Cc1cc(C)nc(NC(=S)N2CCC(CN3CCOCC3)CC2)c1` [Compound 270], the half-maximal inhibitory concentration (IC50) is not below 20 µM.
On to `FC(F)(F)c1cccc(N2CCN(C(=S)Nc3ccncc3)CC2)c1` [Compound 31], for which the 50% inhibitory concentration (IC50) lay within 10 to 20 µM.
Regarding `Cc1cc(C)nc(NC(=S)N2CCCC(Nc3cccc(C(F)(F)F)c3)C2)c1` (stereo not drawn) [Compound 251], the concentration for half-maximal inhibition (IC50) was less than 5 µM.
For `Cc1cc(C)nc(NC(=S)N2CCCC(NC(=O)c3ccc(C(F)(F)F)cc3)C2)c1` (stereo not drawn) [Compound 264, N-(1-((4,6-dimethylpyridin-2-yl)carbamothioyl)piperidin-3-yl)-4-(trifluoromethyl)benzamide] the value was less than 5 µM.
Consider `Cc1ccnc(NC(=S)N2CCN(c3cccc(C(F)(F)F)n3)CC2)c1` [Compound 175], for which the IC50 is less than 5 µM.
For `FC(F)(F)c1cccc(N2CCN(C(=S)Nc3nc4ccccc4[nH]3)CC2)c1` [Compound 228] the value was less than 5 µM; for `COc1ccnc(NC(=S)N2CCN(c3cc(Cl)cc(Cl)c3)CC2)c1` [Compound 178], 5 to 10 µM.
Turning to `COc1cccc(NC(=S)N2CCN(c3cccc(Cl)c3Cl)CC2)n1` [Compound 189], the half-inhibitory concentration (IC50) lay in the range of 10 to 20 µM.
As to `COc1cc(OC)cc(N2CCN(C(=S)Nc3cc(C)cc(C)n3)CC2)c1` [Compound 216], the half-maximal inhibitory concentration (IC50) lay within 10 to 20 µM.
With `Cc1cc(C)nc(NC(=S)N2CCN(c3cc(Cl)c(Cl)c(Cl)c3)CC2)c1` [Compound 206], the IC50 was not below 20 µM.
In the case of `COc1ccnc(NC(=S)N2CCN(c3ccccc3C(F)(F)F)CC2)c1` [Compound 183], the 50% inhibitory concentration (IC50) lay in the range of 5 to 10 µM.
With `Cc1cc(C)nc(NC(=S)N2CCN([S+](=O)([O-])c3cccc(C(F)(F)F)c3)CC2)c1` [Compound 100] the figure was less than 5 µM; with `FC(F)(F)c1cccc(N2CCN(C(=S)Nc3nccc4ccccc34)CC2)c1` [Compound 32], 5 to 10 µM; with `Cc1cc(C)nc(NC(=S)N2CCN(c3cc(Cl)cc(Cl)n3)CC2)c1` [Compound 207], not below 20 µM.
Turning to `Cc1ccnc(NC(=S)Nc2cccc(C(F)(F)F)c2)c1` [Compound 46], the IC50 lay within 10 to 20 µM.
For `Cc1cc(C)nc(NC(=S)N2CCN(CCN3CCCCC3)CC2)c1` [Compound 256] the value was not below 20 µM.
Regarding `Cc1cc(C)nc(NC(=S)N2CCN(c3ccc4ncccc4c3[N+](=O)[O-])CC2)c1` [Compound 124], the IC50 fell in the range of 10 to 20 µM.
For `Cc1ccnc(NC(=S)N2CCN(c3ncc(C(F)(F)F)cc3Cl)CC2)c1` [Compound 176] the value was 5 to 10 µM; for `Cc1cc(C)nc(NC(=S)N2CCN(c3ccc4occc4c3)CC2)c1` [Compound 164], 10 to 20 µM; for `COc1ccc(N2CCN(C(=S)Nc3cc(C)ccn3)CC2)cc1` [Compound 12], not below 20 µM.
For `O=C(Nc1cc2ccccc2cn1)N1CCN(c2cccc(C(F)(F)F)c2)CC1` [Compound 152], the IC50 was not below 20 µM.
Consider `Cc1cc(C)nc(NC(=S)N2CCN(c3ccc4nncn4c3)CC2)c1` [Compound 161], for which the IC50 is not below 20 µM.
With `Cc1ccnc(NC(=S)N2CCN(c3ccc(O)cc3)CC2)c1` [Compound 13] the figure was not below 20 µM; with `Cc1cc(C)nc(NC(=S)N2CCN(c3ncccc3C#N)CC2)c1` [Compound 121], not below 20 µM.
Take `Cc1cc(C)nc(NC(=S)N2CCN(c3nsc4ccccc34)CC2)c1` [Compound 108]: the IC50 lay within 10 to 20 µM.
`Cc1cc(C)nc(NC(=S)N2CCN(c3cc(Cl)cc(Cl)c3)CC2)c1` [Compound 65]: the IC50 was in the range of 5 to 10 µM.
In the case of `COc1ccnc(NC(=S)N2CCN(c3ccc4ccccc4n3)CC2)c1` [Compound 186], the 50% inhibitory concentration (IC50) was 10 to 20 µM.
For `COc1cccc(NC(=S)N2CCN(c3cccc(C(F)(F)F)n3)CC2)n1` [Compound 194] the value was 5 to 10 µM.
As for `COc1ccc2nc(NC(=S)N3CCN(c4cccc(C(F)(F)F)c4)CC3)[nH]c2c1` [Compound 243], the half-maximal inhibitory concentration (IC50) is less than 5 µM.
Regarding `Cc1cc(C)nc(NC(=S)N2CCN(c3ccc4nonc4c3)CC2)c1` [Compound 159], the IC50 is not below 20 µM.
Turning to `COc1ccnc(NC(=S)N2CCN(c3cccc(C(F)(F)F)c3)CC2)c1` [Compound 36], the 50% inhibitory concentration (IC50) is less than 5 µM.
With `Cc1cc(C)nc(NC(=S)N2CCN(Cc3ccc(C(F)(F)F)cc3)[C@@H](C)C2)c1` [Compound 297] the figure was less than 5 µM; with `FC(F)(F)c1cccc(N2CCN(C(=S)Nc3cnccn3)CC2)c1` [Compound 128], not below 20 µM.
For `Cc1ccnc(NC(=S)N2CCN(c3cccc(Cl)c3Cl)CC2)c1` [Compound 171], the IC50 fell in the range of 5 to 10 µM.
Regarding `Cc1cc(C)nc(NC(=S)N2CC3CN(c4ncc(C(F)(F)F)cc4Cl)CC3C2)c1` (stereo not drawn) [Compound 225], the IC50 fell in the range of 10 to 20 µM.
With `COc1cccc(NC(=S)N2CCN(c3ccc(Cl)cc3Cl)CC2)n1` [Compound 190] the figure was less than 5 µM; with `Cc1cc(C)nc(NC(=S)N2CCN(c3ccc(N4CCCC4)nn3)CC2)c1` [Compound 84], not below 20 µM; with `CCOC(=O)N1CCN(C(=S)Nc2cc(C)cc(C)n2)CC1` [Compound 259], not below 20 µM.
As to `Cc1cc(C)nc(NC(=S)N2CCN(c3ccc4ccccc4n3)CC2)c1` [Compound 85], the IC50 lay within 10 to 20 µM.
For `COc1cccc(NC(=S)N2CCN(c3cc(C(F)(F)F)cc(C(F)(F)F)c3)CC2)n1` [Compound 188] the value was less than 5 µM.
For `Cc1cc(C)nc(NC(=S)N2CCN(c3cc(Cl)c(Cl)cc3Cl)CC2)c1` [Compound 220], the IC50 was not below 20 µM.
With `Cc1cc2nc(NC(=S)N3CCN(c4cccc(C(F)(F)F)c4)CC3)[nH]c2cc1C` [Compound 244] the figure was less than 5 µM; with `Cc1cc(C)nc(NC(=S)N2CCCC(NC(=O)c3cccc(C(F)(F)F)c3)C2)c1` (stereo not drawn) [Compound 262, N-(1-((4,6-dimethylpyridin-2-yl)carbamothioyl)piperidin-3-yl)-3-(trifluoromethyl)benzamide], less than 5 µM.
With `Cc1ccnc(NC(=S)NC2CCN(c3cccc(C(F)(F)F)c3)CC2)c1` [Compound 50], the IC50 lay in the range of 10 to 20 µM.
Turning to `Cc1cc(C)nc(NC(=S)N2CCN(C3=Nc4ccccc4Oc4ccccc43)CC2)c1` [Compound 154], the IC50 was not below 20 µM.
Consider `Cc1cc(C)nc(NC(=S)N2CCN(c3cc(Cl)cc(C(F)(F)F)c3)CC2)c1` [Compound 137], for which the IC50 lay in the range of 10 to 20 µM.
For the compound `FC(F)(F)c1cccc(N2CCN(C(=S)Nc3nc4ccc(C(F)(F)F)cc4[nH]3)CC2)c1` [Compound 246], the concentration for half-maximal inhibition (IC50) was 5 to 10 µM.
For the compound `Cc1cc(C)nc(NC(=S)N2CCN(c3ccc(Cl)cc3C(F)(F)F)CC2)c1` [Compound 210], the half-inhibitory concentration (IC50) fell in the range of 10 to 20 µM.
On to `COc1cccc(NC(=S)N2CCN(c3ccc(Cl)c(Cl)c3)CC2)n1` [Compound 191], for which the IC50 was not below 20 µM.
Turning to `Cc1ccnc(NC(=S)N2CCN(c3cccc(C(F)(F)F)c3)CC2)n1` [Compound 126], the IC50 fell in the range of 10 to 20 µM.
For the compound `Cc1cc(C)nc(NC(=S)N2CCN(C(=O)c3cccc(C(F)(F)F)c3)CC2)c1` [Compound 261], the IC50 is 5 to 10 µM.
Turning to `Cc1cc(C)nc(NC(=S)N2CCC(NC(=O)c3ccc(C(F)(F)F)cc3)CC2)c1` [Compound 266], the IC50 was less than 5 µM.
In the case of `Cc1cc(C)nc(NC(=S)N2CCN(c3ncccn3)CC2)c1` [Compound 80], the half-maximal inhibitory concentration (IC50) is not below 20 µM.
As for `Cc1cc(C)nc(NC(=S)N2CCN(c3coc4ccccc34)CC2)c1` [Compound 86], the half-maximal inhibitory concentration (IC50) was in the range of 10 to 20 µM.

Values taken from patent US11225469B2, “Inhibitors of phosphoglycerate dehydrogenase (PHGDH) and uses thereof” (Whitehead Institute for Biomedical Research, priority 2015, dated 2022).
